Reference: patent EP4129324A1, “COMPOSITIONS COMPRISING AT LEAST AN AMYLIN RECEPTOR AGONIST AND A GLP-1 RECEPTOR AGONIST” (Adocia, priority 2021, dated 2023)
Entries after “also recorded” stand apart in the source; their conditions may differ.

Test system: gastro-intestinal transit (gastric emptying) in the mouse
Experiment: Gastric emptying (stomach content weight) after charcoal suspension in fasted mice, subcutaneous administration
Assay type: in vivo
Conditions: male Swiss mice, subcutaneous injection of a composition comprising pramlintide alone, versus vehicle
Protocol: The aim of this study was to evaluate the effects of pramlintide (compositions C7-1 and C7-2) and co-administration of pramlintide (compositions C7-1 and C7-2) and exenatide (C7-3 and C7-4) on gastro-intestinal transit (gastric emptying) in the mouse.
Co-administration means that the composition of pramlintide and the composition of exenatide were administered separately.
Studies were conducted on naive male Swiss mice (Janvier Lab) as no gender specific effect were expected. Body weight range of 25-32 g were included in the analysis.
Mice were approximately fasted for 18 hours (~T0-18 h). The gastric emptying (i.e. stomach content) was measured via the administration of a suspension of charcoal at T0 (activated charcoal (0.4 ml/mouse, […]; Sigma Reference number C9157), suspended 10% with 2.5% arabic gum in distilled water). […] Afterwards, the stomach was opened, the contents washed out and the weight recorded again (empty stomach weight).
The results are expressed as the variation of gastric content with the administration compositions comprising pramlintide compared with the gastric content with administration the vehicle (weight of gastric content with pramlintide / weight of gastric content with vehicle). […]

For “Lys-Cys-Asn-Thr-Ala-Thr-Cys-Ala-Thr-Gln-Arg-Leu-Ala-Asn-Phe-Leu-Val-His-Ser-Ser-Asn-Asn-Phe-Gly-Pro-lle-Leu-Pro-Pro-Thr-Asn-Val-Gly-Ser- Asn-Thr-Tyr [pramlintide]”, the “stomach (gastric) content weight, i.e. gastric emptying, result in words” value was “increases the stomach content weight; also recorded: increases the gastric content weight”.
